According to paper PMC9950073, “Alleviation of arthritis through prevention of neutrophil extracellular traps by an orally available inhibitor of protein arginine deiminase 4” (Scientific Reports, 2023):

Assays:
[1] = Microsomal stability, HLM; type: in vitro ADME, human; conditions: 1 µM, liver microsomes 0.5 mg/mL; one range given for HLM/MLM/DLM/RLM
Procedure: (§1) Microsomal stability: Liver microsomes (0.5 mg/mL) from different species were incubated with JBI-589 (1 µM) with or without NADPH (1 mM) at 37 °C for 30 min in potassium phosphate buffer (pH 7.4) and then reaction was stopped with quenching solution (0.5% Formic acid in internal standard (IS) containing ACN). Resulting samples were centrifuged and supernatant was taken for LC–MS/MS analysis. Percent metabolism was calculated as follows: % Metabolized: [1 − (test area ratio/control area ratio)] *100.

CYP2C9 = target: T1, CYP2C9 (Homo sapiens, UniProt P11712); assay: CYP inhibition in human liver microsome, CYP2C9; type: in vitro ADME
T1 construct: from tissue; host or cells: human liver microsomes
T1 sequence (P11712 whole entry): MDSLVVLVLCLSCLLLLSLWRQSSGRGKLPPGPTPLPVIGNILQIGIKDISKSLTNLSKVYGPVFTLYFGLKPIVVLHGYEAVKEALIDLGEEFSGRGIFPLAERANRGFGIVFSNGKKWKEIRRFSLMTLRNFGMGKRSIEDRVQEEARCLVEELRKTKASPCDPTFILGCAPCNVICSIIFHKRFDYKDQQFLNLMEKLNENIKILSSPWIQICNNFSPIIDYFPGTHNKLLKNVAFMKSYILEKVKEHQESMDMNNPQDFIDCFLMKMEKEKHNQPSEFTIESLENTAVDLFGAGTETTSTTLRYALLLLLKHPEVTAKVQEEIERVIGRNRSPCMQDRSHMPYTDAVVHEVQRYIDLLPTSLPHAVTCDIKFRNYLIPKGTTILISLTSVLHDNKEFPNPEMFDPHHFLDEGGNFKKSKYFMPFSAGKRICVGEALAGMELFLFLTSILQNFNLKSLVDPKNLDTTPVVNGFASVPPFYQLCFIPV
Procedure: (§2) CYP inhibition: Human liver microsome (0.1–0.5 mg/mL for various CYPs) and appropriate probe substrates (2.5–20 µM) were incubated in potassium phosphate buffer with or without JBI-589 for 5 min at 37 °C. The reaction was initiated by addition of NADPH (1 mM), incubated at 37 °C for 10 min and quenched (0.5% Formic acid in internal standard (IS) containing ACN). Samples were then centrifuged and taken for LC–MS/MS analysis. Percent change in metabolite formation for each substrate under above conditions using formula: Percent inhibition = [1 − (test area ratio/control area ratio)] *100.

CYP2C19 = target: T2, CYP2C19 (Homo sapiens, UniProt P33261); assay: CYP inhibition in human liver microsome, CYP2C19; type: in vitro ADME
T2 construct: from tissue; host or cells: human liver microsomes
T2 sequence (P33261 whole entry): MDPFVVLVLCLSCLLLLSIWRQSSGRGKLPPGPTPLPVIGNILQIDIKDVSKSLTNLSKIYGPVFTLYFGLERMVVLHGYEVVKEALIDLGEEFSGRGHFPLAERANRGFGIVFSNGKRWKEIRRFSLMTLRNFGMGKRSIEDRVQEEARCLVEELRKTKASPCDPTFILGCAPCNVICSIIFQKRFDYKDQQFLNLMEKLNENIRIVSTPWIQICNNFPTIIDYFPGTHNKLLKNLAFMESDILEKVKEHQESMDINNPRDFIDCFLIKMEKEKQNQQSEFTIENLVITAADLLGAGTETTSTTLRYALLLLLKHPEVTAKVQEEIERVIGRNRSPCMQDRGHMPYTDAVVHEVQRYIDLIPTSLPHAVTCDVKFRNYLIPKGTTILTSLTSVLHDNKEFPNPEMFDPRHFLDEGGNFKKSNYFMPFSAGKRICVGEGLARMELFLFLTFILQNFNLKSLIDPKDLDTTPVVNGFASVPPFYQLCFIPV
Procedure: as §2

human neutrophils = assay: Cell Titer Glo viability assay, neutrophils; type: cell-based; conditions: 24 h, up to 10 µM
Text: All blood samples from healthy donors who participated in this study were obtained after informed consent in accordance with relevant guidelines and regulations given by the ACE Independent ethics committee for Jubilant Biosys Ltd and Office of Clinical Investigations at Boston Children’s Hospital. The ACE Independent ethics committee, Bangalore, approved the use of human whole blood/PBMC/Enriched Subset in Jubilant Biosys Ltd investigations, Drug Controller General of India (DCGI) Reg No. ECR/141/Indt/KA/2013. Briefly, 10 mL K2EDTA vacutainers were used to collect fresh blood from healthy donors (BD vacutainer, Catalog No: BD 367525). A total of 50 ml of blood was taken from a single, healthy human donor. Neutrophils were isolated from human blood using the EasySep Direct Human Neutrophil Isolation Kit, according to the manufacturer's instructions (Stem Cell Technology, Catalog No: 19666). For investigations conducted at Boston Children’s Hospital, experimental procedure was approved by the Office of Clinical Investigations at Boston Children’s Hospital (protocol number IRB-P00003283). […]
The CellTiter-Glo luminescent cell viability assay was performed on neutrophils/peripheral blood mononuclear cells according to the manufacturer’s instructions (Promega, catalog number: G7570)[35]. […] Luminescence was recorded with Perkin Elmer envision 2103 multilabel reader.

[2] = system: collagen induced arthritis; assay: Collagen induced arthritis model in DBA/1 mice; type: in vivo; conditions: Dexamethasone dose not given
[3] = Microsomal stability, DLM; type: in vitro ADME, dog; conditions: 1 µM, liver microsomes 0.5 mg/mL; one range given for HLM/MLM/DLM/RLM
Procedure: as §1

Mice PK study = type: in vivo, Balb/c mice
Text: Institutional Animal Ethical Committee (IAEC) of Jubilant Biosys Ltd (IAEC/JDC/2019/188R (for Mice) nominated by CPCSEA (Committee for the Purpose of Control and Supervision of Experiments on Animals) approved the mice pharmacokinetic experiments. Male Balb/c mice (~ 6–8 weeks old with body weight range of 22–25 g) were procured from Vivo Biotech, Hyderabad, India. Rodent feed (manufactured by Altromin Spezialfutter GmbH & Co. KG., ImSeelenkamp20, D-32791 Lage), and water was provided ad libitum. Intravenous (IV) and oral (PO) pharmacokinetics studies were done at doses of 2 mg/Kg and 10 mg/Kg, respectively at a dose volume of 10 mL/Kg. Sparse sampling was done with three mice at each time point. Blood (~ 100 µL) was collected from retro-orbital plexus at 0.12, 0.25, 0.5, 1, 2, 4, 8 and 24 h for IV and 0.25, 0.5, 1, 2, 4, 8, 10 and 24 h for PO route, in tubes containing K2 and EDTA as anticoagulant. It was centrifuged for 5 min at 10,000 rpm in a refrigerated centrifuge (Biofuge, Heraeus, Germany) maintained at 4 °C for plasma separation. For oral dosing of JBI-589 suspension formulation was prepared using 0.5% Tween-80 and 0.5% methyl cellulose (0.5% in water), while for IV dosing 5% DMSO, 5% Solutol:ethanol (1:1, v/v) and 90% normal saline was used.

[4] = predicted from % inhibition, text says major CYPs tested
[5] = JBI-589 50 mg/kg po BID, Etanercept 25 mg/kg IP day 31–45
[6] = male, Balb/c, mouse, plasma, 2 mg/kg, IV
[7] = male, Balb/c, mouse, plasma, 10 mg/kg, PO

HLM % metabolized @ 30 min [1]: 25-50%
inhibition at 10 min, 10 µM (CYP2C9; human liver microsomes, 10 µM, human liver microsome, read-out: CYP2C9 inhibition (% inh @10 µM)): < 50%
IC50 (CYP2C9; [4]): > 10 µM
inhibition at 10 min, 10 µM (CYP2C19; human liver microsomes, 10 µM, human liver microsome, read-out: CYP2C19 inhibition (% inh @10 µM)): < 50%
IC50 (CYP2C19; [4]): > 10 µM
DLM % metabolized @ 30 min [3]: 25-50%
t1/2 (Mice PK study; 10 mg/kg, PO): 6.3 h
AUC(0-inf) (Mice PK study; [6]): 4380 ng·h/mL
AUC(0-t) (Mice PK study; [6]): 3960 ng·h/mL
C0 (Mice PK study; [6]): 968 ng/mL
Cmax (Mice PK study; [6]): 828 ng/mL
Vd (Mice PK study; [6]): 5.24 L/kg
clearance (Mice PK study; [6]): 7.61 mL/min/kg
half-life (Mice PK study; [6]): 8 h
AUC(0-inf) (Mice PK study; [7]): 13500 ng·h/mL
AUC(0-t) (Mice PK study; [7]): 12500 ng·h/mL
Cmax (Mice PK study; [7]): 874 ng/mL
bioavailability (Mice PK study; [7]): 63%
Compound: Cc1c(-c2cc3ccccc3n2Cc2ccc(F)cc2)nc2cc(C(=O)N3CCC[C@@H](N)C3)ccn12 [JBI-589, (R)-(3-aminopiperidin-1-yl)(2-(1-(4-fluorobenzyl)-1H-indol-2-yl)-3-methylimidazo[1,2-a]pyridin-7-yl)methanone]
viability of neutrophils (human neutrophils): minimal or no changes
clinical score ([2]; JBI-589 50 mg/kg po BID day 0-45, Etanercept 25 mg/kg IP day 31–45): significantly decreased
bone erosion (histopathology) [2, 5]: significantly decreased
joint inflammation (histopathology) [2, 5]: significantly decreased
pannus formation (histopathology) [2, 5]: significantly decreased
spleen weight ([2]; day 45, JBI-589 50 mg/kg po BID): no adverse effect
body weight ([2]; end of study, JBI-589 50 mg/kg po BID): no adverse effect
